Columns and labels:
Format in all cases: in vivo
[1] = test system: Heliothis virescens (tobacco budworm - larvae); experiment: whole plant or invertebrate; settings: in Gossypium hirsutum, 72 h, read-out: grading of mortality, HV
Procedure: (§1) The activity of the Product was determined using a variety of insect pests The Product was used in the form of liquid preparations containing from 100 to 500 parts per million (ppm) by weight of the Product. The preparations were made by dissolving the Product in acetone and diluting the solutions with water containing 0.1% by weight of a wetting agent sold under the trade name "SYNPERONIC" NX until the liquid preparations contained the required concentration of the Product "SYNPERONIC" is a Registered Trade Mark.
(§2) The test procedure adopted with regard to each pest was basically the same and comprised supporting a number of the pests on a medium which was usually a host plant or a foodstuff on which the pests feed, and treating either or both the pests and the medium with the preparations. The mortality of the pests was then assessed at periods usually varying from one to seven days after the treatment.
(§3) The results of the tests are given in Table III for each of the Products, at the rate in parts per million given in the second column as a grading of mortality designated as A, B or C wherein A indicates 80-100% mortality or knockdown, B indicates 50-79% mortality knockdown or knockdown and C indicates less than 50% mortality or knockdown.
(§4) In Table III the pest organism used is designated by a letter code and the pests species, the support medium or food, and the type and duration of test is given in Table II.
(tobacco budworm - larvae)

Myzus persicae (aphids) = experiment: Contact test, mortality of Myzus persicae on Chinese Cabbage leaf (MP); settings: 72 h, 3 days, read-out: grading of mortality, MP
Procedure: as §1, §2, §3, §4

[2] = test system: Nilaparvata lugens (brown plant hopper - nymphs); experiment: Contact test, mortality of Nilaparvata lugens nymphs on Rice plant (NL); settings: 72 h, 3 days, read-out: grading of mortality, NL
Procedure: as §1, §2, §3, §4

[3] = test system: Tetranychus urticae (spider mites - adult); experiment: Contact test, mortality of Tetranychus urticae adults on French bean leaf (TUa); settings: 72 h, 3 days, read-out: grading of mortality, TuA
Procedure: as §1, §2, §3, §4

[4] = test system: Musca domestica (houseflies - adults); experiment: Contact test, mortality of Musca domestica adults (MD); settings: 24 h, 1 day, read-out: grading of mortality, MD
Procedure: as §1, §2, §3, §4

[5] = test system: Diabrotica balteata (rootworm larvae); experiment: Residual test, mortality of Diabrotica balteata larvae, Filter paper/maize seed (DB); settings: 72 h, 3 days, read-out: grading of mortality, DB
Procedure: as §1, §2, §3, §4

[6] = test system: Blattela germanica (cockroach nymphs); experiment: Residual test, mortality of Blattela germanica nymphs (BG); settings: 3 days
Procedure: as §1, §2, §3, §4

[7] = test system: Tetranychus urticae (spider mites - ova); experiment: Contact test, mortality of Tetranychus urticae ova on French bean leaf (TUe); settings: 144 h, 6 days, read-out: grading of mortality, TuE
Procedure: as §1, §2, §3, §4

[8] = test system: Spodoptera exigua (lesser army worm - larvae); experiment: Residual test, mortality of Spodoptera exigua larvae on Cotton leaf (SP); settings: 72 h, 3 days, read-out: grading of mortality, SP
Procedure: as §1, §2, §3, §4
(lesser army worm - larvae)

CCOc1ccc(C(COCc2cccc(Oc3ccc(Cl)cc3)c2)C(F)(F)F)cc1 (racemic) [Compound 3, (RS)-1,1,1-trifluoro-2-(4-ethoxyphenyl)-3-[3-(4-chlorophenoxy)benzyloxy]propane]
mortality at 250 ppm [1]: < 50%
mortality at 250 ppm (Myzus persicae (aphids); 250 ppm): 80 to 100%
mortality at 250 ppm ([2]; 250 ppm): 80 to 100%
mortality at 250 ppm ([3]; 250 ppm): < 50%
mortality at 250 ppm ([4]; 250 ppm): 80 to 100%
mortality at 250 ppm ([5]; 250 ppm): 80 to 100%
grading of mortality, BG ([6]; 250 ppm): A (80-100% mortality or knockdown)

CCOc1ccc(C(COCc2ccc(F)c(Oc3ccc(Cl)cc3)c2)C(F)(F)F)cc1 (racemic) [Compound 5, (RS)-1,1,1-trifluoro-2-(4-ethoxyphenyl)-3-[3-(4-chlorophenoxy)-4-fluorobenzyloxy]propane]
mortality at 500 ppm [1]: 80 to 100%
mortality at 500 ppm (Myzus persicae (aphids)): 80 to 100%
mortality at 500 ppm [2]: 80 to 100%
mortality at 500 ppm [3]: 50 to 79%
mortality at 500 ppm [4]: 80 to 100%
mortality at 500 ppm [5]: 80 to 100%
grading of mortality, BG ([6]; 500 ppm): A (80-100% mortality or knockdown)

Fc1ccc(COCC(c2ccc(OC(F)(F)F)cc2)C(F)(F)F)cc1Oc1ccc(Cl)cc1 (racemic) [Compound 29, (RS)-1,1,1-Trifluoro-2-(4-trifluoromethoxyphenyl)-3-[3-(4-chlorophenoxy)-4-fluorobenzyloxy]propane]
mortality at 500 ppm [1]: 80 to 100%
mortality at 500 ppm (Myzus persicae (aphids)): 80 to 100%
mortality at 500 ppm [2]: 80 to 100%
mortality at 500 ppm [3]: 80 to 100%
mortality at 500 ppm [4]: 80 to 100%
mortality at 500 ppm [7]: 80 to 100%
mortality at 500 ppm [5]: 80 to 100%
mortality at 500 ppm [8]: 80 to 100%
grading of mortality, BG ([6]; 500 ppm): A (80-100% mortality or knockdown)

Fc1ccc(COCC(c2ccc(C(F)(F)F)cc2)C(F)(F)F)cc1Oc1ccccc1 (racemic) [Compound 38, (RS)-1,1,1-Trifluoro-2-(4-trifluoromethylphenyl)-3-(3-phenoxy-4-fluorobenzyloxy) propane]
mortality at 500 ppm [1]: 80 to 100%
mortality at 500 ppm (Myzus persicae (aphids)): 80 to 100%
mortality at 500 ppm [2]: 80 to 100%
mortality at 500 ppm [3]: 80 to 100%
mortality at 500 ppm [4]: 80 to 100%
mortality at 500 ppm [7]: 80 to 100%
mortality at 500 ppm [5]: 80 to 100%
mortality at 500 ppm [8]: 80 to 100%
grading of mortality, BG ([6]; 500 ppm): A (80-100% mortality or knockdown)

FC(F)(F)c1ccc(C(COCc2cccc(Oc3ccccc3)c2)C(F)(F)F)cc1 (racemic) [Compound 39, (RS)-1,1,1-Trifluoro-2-(4-trifluoromethylphenyl)-3-(3-phenoxybenzyloxy)propane]
mortality at 500 ppm [1]: 80 to 100%
mortality at 500 ppm (Myzus persicae (aphids)): 80 to 100%
mortality at 500 ppm [2]: 80 to 100%
mortality at 500 ppm [3]: < 50%
mortality at 500 ppm [4]: 80 to 100%
mortality at 500 ppm [7]: 80 to 100%
mortality at 500 ppm [5]: 80 to 100%
mortality at 500 ppm [8]: 80 to 100%
grading of mortality, BG ([6]; 500 ppm): A (80-100% mortality or knockdown)
